{
  "source": "patent US20060147511A1",
  "about": "“Liposomal glucocorticoids” (priority 2002, published 2006)",
  "key": {"[1]": {"test_system": "Antigen-induced arthritis", "experiment": "Antigen-induced arthritis in rats, determination of joint swelling", "format": "in vivo", "settings": "0.375 mg per kg body weight", "method": "(§1) Antigen-induced arthritis was provoked in test animals (rats) according to Buchner (“Behandlung der antigeninduzierten Arthritis der Ratte mit Anti-Makrophagenprinzipien und monoklonalen Anti-CD4 Antikörpern”, Ph.D. thesis 1996, Friedrich-Alexander University Erlangen-Nuremberg, Germany, p. 129).\n(§2) Arthritis was provoked on day 0 according to Buchner by intra-articular injection of the antigen into the synovial gap in the right knee. The arthritic animals were treated intravenously with liposomal dexamethasone phosphate (formulation A, 3.75 mg/kg) 6, 24 and 48 hours after induction of arthritis. Free dexamethasone phosphate (formulation K, likewise 3.75 mg/kg) and physiological salt solution (saline) were used as controls. The effect of sample administration was established using the following parameters: • determination of joint swelling (cf., FIG. 1)\nArthritis was provoked in rats in analogy to Example 3, and the rats were treated with the following formulations containing only one tenth of the dexamethasone phosphate dose specified in Example 3:\nIn analogy to Example 3, antigen-induced arthritis was provoked in the test animals. Arthritis was provoked on day 0 by intra-articular injection of the antigen into the synovial gap in the right knee. […]"}, "[2]": {"test_system": "Antigen-induced arthritis", "experiment": "Antigen-induced arthritis in rats, histological examination of joint inflammation and joint cartilage destruction", "format": "in vivo", "settings": "for Degree of cartilage destruction / Degree of joint inflammation: 3.75 mg/kg intravenously 6, 24 and 48 hours after induction, scale 0: no changes, 6: massive changes compared to healthy knee", "method": "as §1, §2\nhistological examination of inflammation parameters and of joint cartilage destruction parameters (cf. FIG. 2 and Table 2)\nDegree of joint cartilage destruction and joint inflammation of arthritic animals after treatment\n0: no changes compared to healthy knee\nIn analogy to Example 3, antigen-induced arthritis was provoked in the test animals. Arthritis was provoked on day 0 by intra-articular injection of the antigen into the synovial gap in the right knee. The arthritic animals were treated intravenously with liposomal dexamethasone phosphate (formulation B, C, 3.75 mg/kg each time, according to Table 4) 6, 24 and 48 hours after induction of arthritis. Free dexamethasone phosphate (formulation K, likewise 3.75 mg/kg) and physiological salt solution (saline) were used as controls. The effect of sample administration was established using the following parameters: • determination of joint swelling (cf., FIG. 5)\nhistological examination of inflammation parameters and of joint cartilage destruction parameters (cf., FIG. 2 and Table 5)"}},
  "data": [
    {"smiles": "C[C@@H]1C[C@H]2[C@@H]3CCC4=CC(=O)C=C[C@]4(C)[C@@]3(F)[C@@H](O)C[C@]2(C)[C@@]1(O)C(=O)COP(=O)(O)O", "note": "[Formulation K, dexamethasone phosphate]", "values": [
      {"measurement": "Suppression of antigen-induced arthritis", "setting": "[1]", "value": "developed all symptoms of the animal model after short amelioration"},
      {"measurement": "Histological sections of arthritic knee joints (FIG. 2), finding", "setting": "[2]; Hematoxylin/eosin staining, magnified 92fold", "value": "massive inflammation and destruction of cartilage and bone"},
      {"measurement": "Degree of cartilage destruction", "setting": "[2]; Table 2, rats", "value": 2.75},
      {"measurement": "Degree of joint inflammation", "setting": "[2]; Table 2, rats", "value": 3.5},
      {"measurement": "Degree of cartilage destruction", "setting": "[2]; Table 5, rats", "value": 2.75},
      {"measurement": "Degree of joint inflammation", "setting": "[2]; Table 5, rats", "value": 3.5},
      {"measurement": "Joint cartilage destruction and inflammatory reactions after treatment (in words)", "setting": "[2]; rats, 3.75 mg/kg intravenously", "value": "considerably less effective"}
    ]}
  ]
}
